Test results taken from patent publication US20260138978A1, “POSITIVE ALLOSTERIC MODULATORS OF THE MUSCARINIC ACETYLCHOLINE RECEPTOR M1” (Vanderbilt University, priority 2022, published 2026).

Legend:
[1] = biological target: T1, human mAChRM1 (Homo sapiens, UniProt P11229); test: mAChR M1 cell-based functional assay (calcium mobilization), positive allosteric modulator activity: increase in the EC20 acetylcholine response; settings: for Emax: PAM mode; for EC50: read-out: PAM Activity Human M1 EC50
T1 construct: host or cells: CHO-K1
T1 sequence (P11229 1-460): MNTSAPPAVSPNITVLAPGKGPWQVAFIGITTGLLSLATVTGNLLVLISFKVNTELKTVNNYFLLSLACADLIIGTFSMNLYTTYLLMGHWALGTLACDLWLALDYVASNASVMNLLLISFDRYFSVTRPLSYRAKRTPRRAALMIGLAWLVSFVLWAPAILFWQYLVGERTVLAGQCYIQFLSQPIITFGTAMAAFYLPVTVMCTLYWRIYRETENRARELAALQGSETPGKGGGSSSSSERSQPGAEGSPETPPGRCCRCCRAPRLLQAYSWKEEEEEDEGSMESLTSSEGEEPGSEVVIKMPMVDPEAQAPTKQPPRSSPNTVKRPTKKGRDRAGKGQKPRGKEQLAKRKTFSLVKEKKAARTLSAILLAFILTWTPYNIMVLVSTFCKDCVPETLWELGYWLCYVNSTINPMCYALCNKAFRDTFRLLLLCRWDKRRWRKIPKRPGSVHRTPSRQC
Description: (§1) Chinese hamster ovary (CHO-K1) cells stably expressing rat (r)M1 were purchased from the American Type Culture Collection and cultured according to their indicated protocol. CHO cells stably expressing human (h)M2, hM3, and hM5 were described previously (Levey, et al., 1991); hM1 and hM4 cDNAs were purchased from Missouri S&T cDNA Resource; rM4 cDNA was provided by T. I. Bonner (National Institutes of Health, Bethesda, MD). rM2 and rM3 were cloned from a rat brain cDNA library and sequence verified. hM1, rM2, rM3, hM4, and rM4 cDNAs were used to stably transfect CHO-K1 cells purchased from the American Type Culture Collection using Lipofectamine 2000. To make stable rM2, hM2, rM3, hM4. and rM4 cell lines for use in calcium mobilization assays, these cells also were stably transfected with a chimeric G-protein (Gqi5) (provided by B. R. Conklin, University of California, San Francisco) using Lipofectamine 2000. rM1, hM1, rM3, hM3, rM5, and hM5 cells were grown in Ham's F-12 medium containing 10% heat-inactivated fetal bovine serum (FBS), 20 mM HEPES, and 50 μg/mL G418 sulfate. rM2-Gqi5, hM2-Gqi5, and hM4-Gqi5 cells were grown in the same medium also containing 500 µg/mL Hygromycin B. Stable rM4-Gqi5 cells were grown in DMEM containing 10% heat-inactivated FBS, 20 mM HEPES, 400 μg/mL G418 sulfate, and 500 μg/mL Hygromycin B.
(§2) For high throughput measurement of agonist-evoked increases in intracellular calcium, CHO-K1 cells stably expressing muscarinic receptors were plated in growth medium lacking G418 and hygromycin at 15,000 cells/[…] in Greiner 384-well black-walled, tissue culture (TC)-treated, clear-bottom plates (VWR). Cells were incubated overnight at 37° C. and 5% CO2. The next day, cells were washed using an ELX 405 (BioTek) with four washes (80 μL) of assay buffer then aspirated to 20 μL. Next, 20 μL of 16 μM Fluo-4/acetoxymethyl ester (Invitrogen, Carlsbad, CA) prepared as a 2.3 mM stock in DMSO and mixed in a 1:1 ratio with 10% (w/v) Pluronic F-127 and diluted in assay buffer was added to the wells and the cell plates were incubated for 50 min at 37° C. and 5% CO2. Dye was removed by washing with the ELX 405 (four 80 μL washes of assay buffer) then aspirated to 20 μL. Compound master plates were formatted in an 11 point CR^c format (1:3 dilutions) in 100% DMSO with a starting concentration of 10 mM using the BRAVO liquid handler (Agilent). Test compound CRCs were then transferred to daughter plates (240 nL) using the Echo acoustic plate reformatter (Labcyte, Sunnyvale, CA) and then diluted into assay buffer ([…]) to a 2× stock using a Thermo Fisher Combi (Thermo Fisher Scientific, Waltham, MA).
(§3) Calcium flux was measured using the Functional Drug Screening System (FDSS) 6000 (Hamamatsu Corporation, Tokyo, Japan) as an increase in the fluorescent static ratio. Compounds were applied to cells (20 μL, 2×) using the automated system of the FDSS 6000 at 4 s into the 300 s protocol and the data were collected at 1 Hz. […] Agonist activity was analyzed as a concentration-dependent increase in calcium mobilization upon compound addition. Emax values for agonist activity are expressed relative to the maximum for acetylcholine. Positive allosteric modulator activity was analyzed as a concentration-dependent increase in the EC20 acetylcholine response. Antagonist activity was analyzed as a concentration-dependent decrease in the EC80 acetylcholine response. Concentration-response curves were generated using a four-parameter logistical equation in XLfit curve fitting software (IDBS, Bridgewater, NJ) for Excel (Microsoft, Redmond, WA) or Prism (GraphPad Software, Inc., San Diego, CA).
Activity (EC50 and Emax) was determined in the mAChRM1 cell-based functional assay as described above and the data are shown in Table 16. The compound numbers correspond to the compound numbers used in Table 15.

[2] = biological target: T1, human mAChRM1; test: mAChR M1 cell-based functional assay (calcium mobilization), agonist activity upon compound addition, Emax relative to acetylcholine maximum; settings: for Agonist Activity Human M1 EC50 / EC50: calcium mobilization upon compound addition; for Emax: relative to the maximum for acetylcholine
Description: Lack of agonist activity may be measured as weak or no increase in calcium fluorescence in mAChRM1-transfected CHO-K1 cells in the presence of the compound, compared to the response of equivalent CHO-K1 cells in the absence of the compound. Lack of mAChRM1 agonist activity may be determined as a percent response relative to acetylcholine. For example, a disclosed compound may have less than or equal to 30%, 25%, 20%, 15%, 10%, 5%, or 1% mAChRM1 agonist activity relative to acetylcholine. A disclosed compound may have substantially no mAChRM1 agonist activity. […] The absence of mAChRM1 agonist activity may contribute to the avoidance of cholinergic adverse effect liability.
as §1, §2
as §3, with “Antagonist activity was analyzed as a concentration-dependent decrease in the EC80 acetylcholine response. Concentration-response curves were generated using a four-parameter logistical equation in XLfit curve fitting software (IDBS, Bridgewater, NJ) for Excel (Microsoft, Redmond, WA) or Prism (GraphPad Software, Inc., San Diego, CA).” left out

[3] = increase in the EC20 acetylcholine response

Row | PAM Activity Human M1 EC50 [1, 3] | Agonist Activity Human M1 EC50 [2] | Emax [1] | EC50 [1, 3] | EC50 [2] | Emax [2] | Structure (SMILES)
1 | inactive | inactive | – | – | – | – | CC(C)(O)c1cc(F)c(-c2cc(F)c(CN3Cc4ncccc4C3=O)c(F)c2)cc1F [Compound 48, 6-((2′,3,5,5′-tetrafluoro-4′-(2-hydroxypropan-2-yl)-[1,1′-biphenyl]-4-yl)methyl)-6,7-dihydro-5H-pyrrolo[3,4-b]pyridin-5-one]
2 | – | inactive | 78% | 2210 nM | – | – | CCC(O)(CC)c1ccc(-c2ccc(CN3Cc4ncccc4C3=O)c(F)c2)c2cn(C)nc12 [Compound 70, 6-(2-fluoro-4-(7-(3-hydroxypentan-3-yl)-2-methyl-2H-indazol-4-yl)benzyl)-6,7-dihydro-5H-pyrrolo[3,4-b]pyridin-5-one]
3 | – | inactive | 84% | 1870 nM | – | – | Cn1cc2c(-c3cnc(CN4Cc5cccnc5C4=O)c(F)c3)ccc(C(C)(C)O)c2n1 [Compound 124, 6-((3-fluoro-5-(7-(2-hydroxypropan-2-yl)-2-methyl-2H-indazol-4-yl)pyridin-2-yl)methyl)-5,6-dihydro-7H-pyrrolo[3,4-b]pyridin-7-one]
4 | – | – | 83% | 96 nM | 5.3 µM | 68% | [2H]C1([2H])c2ncccc2C(=O)N1Cc1c(F)cc(-c2ccc(C(C)(C)O)c3nn(C)cc23)cc1C1CC1 (single isomer, unassigned) [Compound 143, 6-(2-cyclopropyl-6-fluoro-4-(7-(2-hydroxypropan-2-yl)-2-methyl-2H-indazol-4-yl)benzyl)-6,7-dihydro-5H-pyrrolo[3,4-b]pyridin-5-one-7,7-d2]
5 | – | inactive | 56% | ≥ 10000 nM | – | – | Cn1cc2c(-c3cc(F)c(CN4Cc5ncccc5C4=O)c(F)c3)ccc(C3(O)CNC3)c2n1 [Compound 114, 6-(2,6-Difluoro-4-(7-(3-hydroxyazetidin-3-yl)-2-methyl-2H-indazol-4-yl)benzyl)-6,7-dihydro-5H-pyrrolo[3,4-b]pyridin-5-one]
6 | – | – | 89% | 531 nM | 8 µM | 29% | Cc1nc2c(-c3cc(F)c(CN4Cc5ncccc5C4=O)c(F)c3)ccc(C(C)(C)O)n2n1 [Compound 115, 6-(2,6-difluoro-4-(5-(2-hydroxypropan-2-yl)-2-methyl-[1,2,4]triazolo[1,5-a]pyridin-8-yl)benzyl)-6,7-dihydro-5H-pyrrolo[3,4-b]pyridin-5-one]
7 | – | inactive | 71% | 1210 nM | – | – | Cn1cc2c(-c3ccc(CN4Cc5cccc(F)c5C4=O)c(F)c3F)ccc(C(C)(C)O)c2n1 [Compound 164, 2-(2,3-difluoro-4-(7-(2-hydroxypropan-2-yl)-2-methyl-2H-indazol-4-yl)benzyl)-7-fluoroisoindolin-1-one]
8 | – | inactive | 80% | 138 nM | – | – | CCC(C)(O)c1ccc(-c2cc(F)c(CN3Cc4ncccc4C3=O)c(F)c2)c2cn(C)nc12 (centres unmarked) [Compound 82, 6-(2,6-difluoro-4-(7-(2-hydroxybutan-2-yl)-2-methyl-2H-indazol-4-yl)benzyl)-6,7-dihydro-5H-pyrrolo[3,4-b]pyridin-5-one]
9 | – | – | 67% | 396 nM | ≥ 10 µM | 16% | Cn1cc2c(-c3ccc(CN4Cc5ncccc5C4=O)cc3)ccc(C(C)(C)O)c2n1 [Compound 59, 6-(4-(7-(2-hydroxypropan-2-yl)-2-methyl-2H-indazol-4-yl)benzyl)-6,7-dihydro-5H-pyrrolo[3,4-b]pyridin-5-one]
10 | – | – | 83% | 76 nM | 1.87 µM | 22% | [2H]C([2H])([2H])C(O)(c1ccc(-c2cc(F)c(CN3Cc4ncccc4C3=O)c(F)c2)c2cn(C)nc12)C([2H])([2H])[2H] [Compound 93, 6-(2,6-difluoro-4-(7-(2-hydroxypropan-2-yl-1,1,1,3,3,3-d6)-2-methyl-2H-indazol-4-yl)benzyl)-6,7-dihydro-5H-pyrrolo[3,4-b]pyridin-5-one]
11 | – | – | 78% | 66 nM | 2.06 µM | 54% | [2H]C([2H])([2H])n1cc2c(-c3cc(F)c(CN4Cc5ncccc5C4=O)c(C4CC4)c3)ccc(C(C)(C)O)c2n1 (single isomer, unassigned) [Compound 16, 6-(2-cyclopropyl-6-fluoro-4-(7-(2-hydroxypropan-2-yl)-2-(methyl-d3)-2H-indazol-4-yl)benzyl)-6,7-dihydro-5H-pyrrolo[3,4-b]pyridin-5-one]
12 | – | inactive | 87% | 64 nM | – | – | Cn1cc2c(-c3cc(F)c(CN4Cc5cccc(F)c5C4=O)c(F)c3)ccc(C(C)(C)O)c2n1 [Compound 154, 2-(2,6-difluoro-4-(7-(2-hydroxypropan-2-yl)-2-methyl-2H-indazol-4-yl)benzyl)-7-fluoroisoindolin-1-one]
13 | – | – | 72% | 780 nM | > 10 µM | 15% | Cn1cc2c(-c3cc(F)c(CN4Cc5ncccc5C4=O)c(F)c3)ccc(C3(O)CC(F)(F)C3)c2n1 [Compound 105, 6-(4-(7-(3,3-difluoro-1-hydroxycyclobutyl)-2-methyl-2H-indazol-4-yl)-2,6-difluorobenzyl)-6,7-dihydro-5H-pyrrolo[3,4-b]pyridin-5-one]
14 | – | inactive | 80% | 521 nM | – | – | Cc1cc(-c2ccc(C(C)(C)O)c3nn(C)cc23)ccc1CN1Cc2cccc(F)c2C1=O [Compound 161, 7-fluoro-2-(4-(7-(2-hydroxypropan-2-yl)-2-methyl-2H-indazol-4-yl)-2-methylbenzyl)isoindolin-1-one]
